Measurements taken from publication PMC12888920, “MMP-9 regulates disulphide isomerase activity of TGM2 to enhance fusion glycoprotein-mediated syncytium formation of respiratory syncytial virus” (Protein & Cell, 2025).
Blank lines part the entries; values can stand above or below the compound they belong to.

Key:
[1] = test system: HEp-2 cells; assay: Cell viability assay (CellTiter-Glo) in HEp-2 cells; assay type: cell-based
Protocol: (§1) Figure 7. MMP-9-mediated TGM2 cleavage potentiates RSV–host interaction. (A) Cytotoxicity profiling. Dose-response curves of TGM2 inhibitors (ZED-1227, Cystamine, Bacitracin, E64FC26, ML359) in HEp-2 cells (72 h treatment). Viability was assessed by CellTiter-Glo assay. Data normalized to untreated controls. mean ± SD, n = 3. (B) Antiviral efficacy. Viral inhibition (FFA) in RSV A2-infected HEp-2 cells treated with TGM2 inhibitors at threefold dilution gradients: ZED-1227 (60–10 µmol/L), Cystamine (200–22.2 µmol/L), Bacitracin (500–50 µmol/L), E64FC26 (0.2–0.05 µmol/L), and ML359 (10–1.1 µmol/L). DMSO as vehicle control. mean ± SD, n = 3. (C) TGM2–F protein interaction. Co-IP analysis in HEK293T cells co-expressing TGM2 and RSV F (48 h). Immunoblots were probed with anti-TGM2, anti-F, or IgG control. Blots represent three independent experiments. (D) Binding kinetics. BLI quantification of TGM2–DS-Cav1 (RSV F prefusion conformation) interaction. The results represent three biological replicates. (E) Ternary complex formation. Co-IP of MMP-9-TGM2-F complex in HEK293T cells (48 h). GAPDH as loading control. Below the asterisk represents the objective band. Blots represent three independent experiments. (F) Impairing MMP-9/TGM2/RSV-F complex inhibits RSV infection. […] (G) Proteolytic enhancement. MMP-9-cleaved TGM2 (TGM2-44) enhances protein disulfide isomerase (PDI) activity was measured using reduced DS-Cav1. mean ± SD, n = 3. (H) Truncation functional analysis. Viral titers (FFA) in HEp-2 cells expressing MMP-9, TGM2, or cleavage fragments (TGM2-44/41) post RSV infection (MOI = 1, 72 hpi). mean ± SD, n = 3. (I) Syncytium rescue. Syncytia area quantification in TGM2 truncation-expressing cells (ImageJ software). mean ± SD, n = 3. (J) Subcellular redistribution. Confocal microscopy of HEp-2 cells co-expressing TGM2 truncations (HA/FLAG-tagged) and RSV F (72 hpi). Scale bar: 10 µm. Images represent three biological replicates. (K) F protein expression. Fluorescence intensity quantification of RSV F in (J) (ImageJ software). mean ± SD, n = 3. (L) Fusion competence assay. Syncytium formation in HEK293T cells co-expressing TGM2 truncations and RSV F/F-C37S/C69S mutants (48 h). Scale bar: 10 µm. Images represent three biological replicates. (M) Mutant validation. RSV F expression levels in (L) were quantified by ImageJ software. mean ± SD, n = 3. The results are representatively shown with three random experiments. The error bars indicate the mean ± SD of three technical replicates (n = 3). […]
(§2) (B-C) Cytotoxicity profiles in HEp-2 (B) and HBEC (C) cells. […] Viability was assessed using the CellTiter-Glo assay (G7570, Promega). […]
(§3) 95 Cell viability was evaluated using a CellTiter -Glo® Luminescent Cell Viability Assay 96 kit (G7571, Promega) according to the manufacturer’s instructions. […]

[2] = test system: RSV A2; assay: Viral inhibition (FFA) in RSV A2-infected HEp-2 cells treated with TGM2 inhibitors; assay type: cell-based, Respiratory syncytial virus; conditions: HEp-2, RSV A2; ZED-1227 60–10, Cystamine 200–22.2, Bacitracin 500–50, E64FC26 0.2–0.05, ML359 10–1.1 µmol/L
Protocol: Figure 7. MMP-9-mediated TGM2 cleavage potentiates RSV–host interaction. (A) Cytotoxicity profiling. Dose-response curves of TGM2 inhibitors (ZED-1227, Cystamine, Bacitracin, E64FC26, ML359) in HEp-2 cells (72 h treatment). Viability was assessed by CellTiter-Glo assay. Data normalized to untreated controls. mean ± SD, n = 3. (B) Antiviral efficacy. Viral inhibition (FFA) in RSV A2-infected HEp-2 cells treated with TGM2 inhibitors at threefold dilution gradients: ZED-1227 (60–10 µmol/L), Cystamine (200–22.2 µmol/L), Bacitracin (500–50 µmol/L), E64FC26 (0.2–0.05 µmol/L), and ML359 (10–1.1 µmol/L). DMSO as vehicle control. mean ± SD, n = 3. (C) TGM2–F protein interaction. Co-IP analysis in HEK293T cells co-expressing TGM2 and RSV F (48 h). Immunoblots were probed with anti-TGM2, anti-F, or IgG control. Blots represent three independent experiments. (D) Binding kinetics. BLI quantification of TGM2–DS-Cav1 (RSV F prefusion conformation) interaction. The results represent three biological replicates. (E) Ternary complex formation. Co-IP of MMP-9-TGM2-F complex in HEK293T cells (48 h). GAPDH as loading control. Below the asterisk represents the objective band. Blots represent three independent experiments. (F) Impairing MMP-9/TGM2/RSV-F complex inhibits RSV infection. […] (G) Proteolytic enhancement. MMP-9-cleaved TGM2 (TGM2-44) enhances protein disulfide isomerase (PDI) activity was measured using reduced DS-Cav1. mean ± SD, n = 3. (H) Truncation functional analysis. Viral titers (FFA) in HEp-2 cells expressing MMP-9, TGM2, or cleavage fragments (TGM2-44/41) post RSV infection (MOI = 1, 72 hpi). mean ± SD, n = 3. (I) Syncytium rescue. Syncytia area quantification in TGM2 truncation-expressing cells (ImageJ software). mean ± SD, n = 3. (J) Subcellular redistribution. Confocal microscopy of HEp-2 cells co-expressing TGM2 truncations (HA/FLAG-tagged) and RSV F (72 hpi). Scale bar: 10 µm. Images represent three biological replicates. (K) F protein expression. Fluorescence intensity quantification of RSV F in (J) (ImageJ software). mean ± SD, n = 3. (L) Fusion competence assay. Syncytium formation in HEK293T cells co-expressing TGM2 truncations and RSV F/F-C37S/C69S mutants (48 h). Scale bar: 10 µm. Images represent three biological replicates. (M) Mutant validation. RSV F expression levels in (L) were quantified by ImageJ software. mean ± SD, n = 3. The results are representatively shown with three random experiments. The error bars indicate the mean ± SD of three technical replicates (n = 3). Statistical analysis: one-way ANOVA with Dunnett’s post hoc test (B, F, G, H, I, K, M); unpaired two-tailed Student’s t-test (F, H, I, K, M). *P < 0.05, **P < 0.01, ***P < 0.001; ns, not significant.

[3] = test system: RSV A2; assay: Antiviral activity (FFA) against RSV A2 in HEp-2 cells; assay type: cell-based; conditions: human respiratory syncytial virus; HEp-2, RSV A2, MOI = 0.1, 72 hpi; read-out: EC50
From the text: (§4) Figure 1. Antiviral activity of metalloproteinase inhibitors against RSV in vitro. (A) Experimental workflow for RSV A2 infection and compound treatment. (B) High-throughput screening of TargetMol L1100 library (246 host protease inhibitors targeting 10 pathways: MMPs, caspases, proteasomes, apoptosis regulators, cysteine proteases, gamma-secretase, autophagy modulators, serine proteases, DPP-4, and beta-secretase) using concentration gradients (1, 5, 10 µmol/L). HEp-2 cells were pretreated with compounds for 1 hour prior to RSV A2 infection (MOI = 0.1). Plaque formation was quantified at 72 hours post-infection (hpi) and normalized to DMSO controls. […] (G) Target overlap analysis of four MMP-9-targeting inhibitors. (H) Viral titers in supernatants of HEp-2 cells transfected with MMP-specific siRNAs (24 h) followed by RSV A2 infection (MOI = 1, 72 h). mean ± SD, n = 3. The results are representatively shown with three random experiments. The error bars indicate the mean ± SD of three technical replicates (n = 3). Statistical significance was determined by one-way ANOVA with Dunnett’s post hoc test: *P < 0.05, ***P < 0.001; ns, not significant. […]
(§5) 110 overtly cytotoxic) underwent dose -response validation (0.00004 –10 μM) to generate
(§6) 111 EC50 curves (GraphPad Prism 8.0) .
(§7) 112 Evaluation of in vitro antiviral activity
(§8) 113 Compound inhibitor treatments: HEp-2 cells (1.3×10⁴/well) or HBEC (1.8×10⁴/well)
(§9) 114 were pretreated with test compounds for 1 h before RSV A2/B18537 infection
(§10) 115 (MOI=0.1 or 0.3). Viral inhibition was quantified at 72 hpi via FFA. Fixed cells (4%
(§11) 116 PFA) were permeabilized (0.3% Triton X-100), stained with anti-RSV-FITC
(§12) 118 Fluorescent foci were normalized to nuclear counts (ImageJ software) for EC 50
(§13) 119 determination via four-parameter logistic regression (GraphPad Prism 8.0). Data
(§14) 120 represent triplicate experiments. […]

[4] = test system: RSV B18537; assay: Antiviral activity (FFA) against RSV B18537 in HEp-2 cells; assay type: cell-based; conditions: human respiratory syncytial virus; HEp-2, RSV B18537, MOI = 0.1, 72 hpi; read-out: EC50
From the text: as §4
109 111813, MCE) and 0.1% DMSO vehicle. Primary hits (>50% CPE reduction + not
as §5, §6, §7, §8, §9, §10, §11, §12, §13, §14

[5] = test system: RSV A2; assay: Antiviral activity (FFA) against RSV A2 in primary human bronchial epithelial cells (HBEC); assay type: cell-based; conditions: human respiratory syncytial virus, Epithelial cell; HBEC, RSV A2, MOI = 0.3, 72 hpi; read-out: EC50
From the text: as §4, §7, §8, §9, §10, §11, §12, §13, §14

[6] = test system: RSV B18537; assay: Antiviral activity (FFA) against RSV B18537 in HBEC; assay type: cell-based; conditions: human respiratory syncytial virus; HBEC, RSV B18537, MOI = 0.3, 72 hpi; read-out: EC50
From the text: as §4, §7, §8, §9, §10, §11, §12, §13, §14

[7] = Cell viability assay (CellTiter-Glo) in HEp-2 cells; assay type: cell-based; conditions: human
Protocol: as §1, §2, §3

[8] = target: RSV F protein (DS-Cav1); assay: Biolayer interferometry, TGM2 binding to RSV F protein (DS-Cav1); design: species or system Respiratory syncytial virus; conditions: BLI, biotinylated DS-Cav1 on SA biosensors
Protocol: Figure 7. MMP-9-mediated TGM2 cleavage potentiates RSV–host interaction. (A) Cytotoxicity profiling. Dose-response curves of TGM2 inhibitors (ZED-1227, Cystamine, Bacitracin, E64FC26, ML359) in HEp-2 cells (72 h treatment). Viability was assessed by CellTiter-Glo assay. Data normalized to untreated controls. mean ± SD, n = 3. (B) Antiviral efficacy. Viral inhibition (FFA) in RSV A2-infected HEp-2 cells treated with TGM2 inhibitors at threefold dilution gradients: ZED-1227 (60–10 µmol/L), Cystamine (200–22.2 µmol/L), Bacitracin (500–50 µmol/L), E64FC26 (0.2–0.05 µmol/L), and ML359 (10–1.1 µmol/L). DMSO as vehicle control. mean ± SD, n = 3. (C) TGM2–F protein interaction. […] BLI quantification of TGM2–DS-Cav1 (RSV F prefusion conformation) interaction. […] MMP-9-cleaved TGM2 (TGM2-44) enhances protein disulfide isomerase (PDI) activity was measured using reduced DS-Cav1. mean ± SD, n = 3. […] Syncytia area quantification in TGM2 truncation-expressing cells (ImageJ software). mean ± SD, n = 3. […] Fluorescence intensity quantification of RSV F in (J) (ImageJ software). mean ± SD, n = 3. […] RSV F expression levels in (L) were quantified by ImageJ software. mean ± SD, n = 3. […]
271 TGM2) were quantified using a Sartorius Octet R4 system. […]
275 equilibration. MMP-9 (MCE) binding was assessed across two concentration ranges: […]
281 (Sartorius) at 20 µg/mL. TGM2 binding was evaluated across 0 –100 µM (7 […]

Compound: CCOC(=O)C1(CCOc2ccccc2)CCN(Cc2ccc(O)c(Cl)c2)CC1 [ML359]
CC50 [1]: 26100 nM
inhibition of RSV replication (antiviral efficacy) [2]: strong antiviral efficacy

EC50 [3]: 2.6 nM
EC50 [4]: 32.9 nM
EC50 [5]: 45.5 nM
EC50 [6]: 47.1 nM
Compound: Cc1cnc(N2CC3(CCOCC3)C2)c(C(=O)Nc2ccc(C(=O)N3CCc4cc(C(=O)Nc5c(C)cccc5F)sc4-c4ccccc43)cc2)c1 [PC786]

Compound: CCC(CC)CNC(=O)Cn1cccc(NC(=O)[C@H](CC/C=C/C(=O)OC)NC(=O)c2cncn2C)c1=O [ZED-1227]
CC50 at 72 h [7]: 78700 nM
inhibition of RSV replication (antiviral efficacy) [2]: did not inhibit RSV replication

Compound: Bacitracin
inhibition of RSV replication (antiviral efficacy) [2]: strong antiviral efficacy

Compound: TGM2: recombinant transglutaminase 2 protein used in BLI
Kd [8]: 6310 nM
